Values joined by “and” are separate entries in the source; they are usually repeats but may differ in a detail not shown here. Identical values can stand only once.
System: transcript levels in tissues (GH/IGF and glucagon/insulin axes, SSTR signalling)
Assay type: in vivo, cynomolgus monkeys
[1] = pituitary, 0.1 mg/animal/14 day, control 72
[2] = pituitary, 0.1 mg/animal/14 day, control 91
[3] = pituitary, 0.1 mg/animal/14 day, control 198
[4] = pituitary, 0.1 mg/animal/14 day, control 225

cyclo[4-(NH2—C2H4—NH—CO—O)Pro-Phg-DTrp-Lys-Tyr(4-Bzl)-Phe] [SOM230]
ATPase, H+/K+ exchanging, beta polypeptide expression ↓ (fold change) (liver): polypeptide ↓ x2 | Adenylyl cyclase-associated protein expression ↑ (fold change) (liver): ↑ x1.5 | Arginine vasopressine receptor 2 expression ↑ (fold change) (liver): receptor 2 ↑ x2.5 | B lymphoid tyrosine kinase expression ↑ (fold change) (liver): ↑ x3.5 | BCL2-like 1 expression ↓ (fold change) (liver): ↓ x3.5 | Bone-derived GF expression ↑ (fold change) (liver): ↑ x3 | Bruton agammaglobulinemia a tyrosine kinase expression ↑ (fold change) (liver): ↑ x1.5 | Butyrate response factor 2 (EGF-response factor 2) expression ↑ (fold change) (liver): x2 | Ca++ channel, voltage-dependent, P/Q type, alpha 1A subunit expression ↓ (fold change) (liver): subunit ↓ x2.5 | Calcium/calmodulin-dependent protein kinase kinase 2, β expression ↑ (fold change) (liver): ↑ x3 | Calmodulin 2 (phosphorylase kinase, δ) expression ↑ (fold change) (liver): kinase, δ) ↑ x2 | Cdk 5, regulatory subunit 1 expression ↑ (fold change) (liver): subunit 1 ↑ x2.5 | Cdk like-2 expression ↓ (fold change) (liver): x2 | Cdki1A (p21/Cip1) expression ↑ (fold change) (liver): (p21/Cip1) ↑ x6 | Cdki 2D (p19, inhibits CDK4) expression ↓ (fold change) (liver): ↓ x2.5 | Corticosteroid binding globulin precursor expression ↑ (fold change) (liver): precursor ↑ x2 | DAG kinase, α (80 kD) expression ↑ (fold change) (liver): (80 kD) ↑ x3 | DAG kinase, δ (130 kD) expression ↑ (fold change) (liver): (130 kD) ↑ x1.5 | Death-associated protein 6 expression ↓ (fold change) (liver): ↓ x2.5 | Dopamine receptor D2 expression ↑ (fold change) (liver): receptor D2 ↑ x3.5 | Dopamine receptor D3 expression ↑ (fold change) (liver): receptor D3 ↑ x2 | EGF (β-urogastrone) expression ↓ (fold change) (liver): urogastrone) ↓ x2.5 | EGF-like repeats and discoidin I-like domains 3 expression ↓ (fold change) (liver): domains 3 ↓ x1.5 | EGFR (avian erythroblastic leukemia viral (v-erb-b) oncogene homolog) expression ↑ (fold change) (liver): homolog) ↑ x2 | FGFR 2 (bacteria-expressed kinase, keratinocyte growth factor receptor, craniofacial dysplasia) expression ↑ (fold change) (liver): dysplasia) ↑ x2 | Fas-activated serine/threonine kinase expression ↑ (fold change) (liver): kinase ↑ x1.5 | Fms-related tyrosine kinase 1(VEGF/vascular permeability factor receptor) expression ↓ (fold change) (liver): receptor) ↓ x1.5 | GABA (A) receptor, γ2 precursor expression ↑ (fold change) (liver): precursor ↑ x4 | GABA(A) receptor-associated protein expression ↑ (fold change) (liver): protein ↑ x1.5 | GCSF expression ↑ (fold change) (liver): GCSF ↑ x3.5 | GFR-bound protein 2 expression ↓ (fold change) (liver): protein 2 ↓ x2.5 | Gene expression (AvgDiff): GR (liver): 80 | Gene expression (AvgDiff): IGF-2 (liver): 269 | Gene expression (AvgDiff): IGFBP2 (liver): 4,476 | Gene expression (AvgDiff): Insulin promoter factor 1, homeodomain transcription factor (liver): 42 | Glucacon receptor expression ↑ (fold change) (liver): ↑ x5 | Glutamate receptor, metabotropic 4 expression ↑ (fold change) (liver): ↑ x1.5 | Glycosylphosphatidylinositol specific phospholipase D1 expression ↓ (fold change) (liver): ↓ x1.5 | Growth differentiation factor 1 expression ↑ (fold change) (liver): 1 ↑ x3 | IFN regulatory factor 5 expression ↑ (fold change) (liver): factor 5 ↑ x2.5 | IFN-induced leucine zipper protein expression ↑ (fold change) (liver): protein ↑ x1.5 | IFN-inducible RNA-dependent protein kinase expression ↑ (fold change) (liver): protein kinase ↑ x4 | IFN-related developmental regulator 2 expression ↓ (fold change) (liver): regulator 2 ↓ x1.5 | IFN-stimulated protein, 15 kDa expression ↓ (fold change) (liver): protein, 15 kDa ↓ x2 | IFNγ responsive transcript expression ↑ (fold change) (liver): transcript ↑ x1.5 | IGF-2 expression ↓ (fold change) (liver): IGF-2 ↓ x2.5 | IGFBP2 expression ↑ (fold change) (liver): IGFBP2 ↑ x2 | IL2 R, γ chain, precursor expression ↑ (fold change) (liver): precursor ↑ x2.5 | IP 5-phosphatase expression ↑ (fold change) (liver): ↑ x2 | Insulin promoter factor 1, homeodomain transcription factor expression ↓ (fold change) (liver): ↓ x1.5 | Natriuretic peptide receptor A/guanylate cyclase A (atrionatriuretic peptide receptor A) expression ↑ (fold change) (liver): ↑ x6 | Nck, Ash and PLC γ binding protein NAP4 expression ↑ (fold change) (liver): NAP4 ↑ x3.5 | PDGF, α polypeptide expression ↑ (fold change) (liver): polypeptide ↑ x1.5 | PDGFR, α polypeptide expression ↑ (fold change) (liver): polypeptide ↑ x2 | PI transfer protein expression ↑ (fold change) (liver): ↑ x3.5 | PI transfer protein, β expression ↓ (fold change) (liver): β ↓ x1.5 | PKC substrate 80K-H expression ↑ (fold change) (liver): 80K-H ↑ x1.5 | PKC, ι expression ↓ (fold change) (liver): PKC, ι ↓ x1.5 | PLA2, group IIA (platelets, synovial fluid) expression ↑ (fold change) (liver): fluid) ↑ x5.5 | PLC, γ1 (formerly subtype 148) expression ↑ (fold change) (liver): subtype 148) ↑ x2 | Rb 1 (including osteosarcoma) expression ↓ (fold change) (liver): ↓ x2 | Rb binding protein expression ↑ (fold change) (liver): ↑ x2.5 | Rb-like 2 (p130) expression ↑ (fold change) (liver): x3 | Receptor (calcitonin) activity modifying protein 1 precursor expression ↑ (fold change) (liver): precursor ↑ x1.5 | Solute carrier family 9 (sodium/hydrogen exchanger), isoform 3 regulatory factor 1 expression ↑ (fold change) (liver): ↑ x11.5 | Solute carrier family 11 (Na+/phosphate symporters), member 1 expression ↑ (fold change) (liver): member 1 ↑ x2.5 | TGF, β1 expression ↓ (fold change) (liver): TGF, β1 ↓ x1.5 | TGFβ activated kinase-binding protein 1 expression ↑ (fold change) (liver): protein 1 ↑ x2.5 | TGFβR III (betaglycan, 300kδ) expression ↓ (fold change) (liver): ↓ x2 | THR interacting protein 15 expression ↑ (fold change) (liver): protein 15 ↑ x1.5 | THR sulfo transferase expression ↑ (fold change) (liver): transferase ↑ x2.5 | TNF (ligand) superfamily, member 10 expression ↑ (fold change) (liver): member 10 ↑ x1.5 | TNF-α converting enzyme expression ↓ (fold change) (liver): enzyme ↓ x2 | δ sleep inducing peptide, immunoreactor expression ↑ (fold change) (liver): ↑ x2.5 | PP 1, regulatory (inhibitor) subunit 5 AvgDiff (pituitary, 0.1 mg/animal/14 day, control 20): 75 | SSTR3 AvgDiff (pituitary, 0.1 mg/animal/14 day, control 22): 57 | Cell division cycle 25B AvgDiff (pituitary, 0.1 mg/animal/14 day, control 40): 162 | GLUR 2, precursor AvgDiff (pituitary, 0.1 mg/animal/14 day, control 42): 59 | BCL2-antagonist of cell death AvgDiff (pituitary, 0.1 mg/animal/14 day, control 44): 69 | PTP, receptor type, T AvgDiff (pituitary, 0.1 mg/animal/14 day, control 58): 101 | Putative Ca++ transporting ATPase AvgDiff (pituitary, 0.1 mg/animal/14 day, control 61): 101 | K+ voltage-gated channel, Shab-related subfamily, member 1 AvgDiff (pituitary, 0.1 mg/animal/14 day, control 66): 22 | PI-3-kinase, catalytic, α polypeptide AvgDiff [1]: 21 | RAB 5C, member RAS oncogene family AvgDiff [1]: 162 | Cdk inhibitor 2C (p18, inhibits CDK4) AvgDiff (pituitary, 0.1 mg/animal/14 day, control 81): 184 | ATPase, Na+/K+ transporting, α 2 (+) polypeptide AvgDiff (pituitary, 0.1 mg/animal/14 day, control 86): 184 | PI-3-kinase, catalytic, δ polypeptide AvgDiff [2]: 34 | S-phase response (cyclin-related) AvgDiff [2]: 129 | PLC, γ 1 (formerly subtype 148) AvgDiff (pituitary, 0.1 mg/animal/14 day, control 111): 40 | SHB adaptor protein (a Src homology 2 protein) AvgDiff (pituitary, 0.1 mg/animal/14 day, control 112): 38 | PI transfer protein, β AvgDiff (pituitary, 0.1 mg/animal/14 day, control 125): 42 | ATPase, H+/K+ exchanging, α polypeptide AvgDiff (pituitary, 0.1 mg/animal/14 day, control 128): 20 | Phosphatase and tensin homolog (mutated in multiple advanced cancers 1) AvgDiff (pituitary, 0.1 mg/animal/14 day, control 129): 36 | K+ channel, subfamily K, member 3 (TASK) AvgDiff (pituitary, 0.1 mg/animal/14 day, control 132): 26 | Rab geranylgeranyltransferase, α subunit AvgDiff (pituitary, 0.1 mg/animal/14 day, control 164): 104 | MAPKKK5 AvgDiff (pituitary, 0.1 mg/animal/14 day, control 171): 278 | Neuroblastoma-amplified protein AvgDiff (pituitary, 0.1 mg/animal/14 day, control 178): 237 | Cyclin D3 AvgDiff (pituitary, 0.1 mg/animal/14 day, control 187): 338 | Cdk inhibitor 2D (p19, inhibits CDK4) AvgDiff [3]: 99 | Cyclin F AvgDiff [3]: 74 | BCL2-associated athanogene AvgDiff (pituitary, 0.1 mg/animal/14 day, control 216): 318 | Core-binding factor, runt domain, α subunit 2; translocated to, 1; cyclin D-related AvgDiff [4]: 491 | Forkhead box H1 AvgDiff [4]: 117 | Rab geranygeranyltransferase, β subunit AvgDiff (pituitary, 0.1 mg/animal/14 day, control 230): 284 | Bax gamma AvgDiff (pituitary, 0.1 mg/animal/14 day, control 258): 326 | ATPase, Na+/K+ transporting, β 3 polypeptide AvgDiff (pituitary, 0.1 mg/animal/14 day, control 292): 610 | IP-4-phosphatase, type 1, isoform b AvgDiff (pituitary, 0.1 mg/animal/14 day, control 296): 177 | BCL2/adenovirus E1B 19kD-interacting protein 3 AvgDiff (pituitary, 0.1 mg/animal/14 day, control 342): 458 | Dual specificity phosphatase 8 AvgDiff (pituitary, 0.1 mg/animal/14 day, control 493): 170 | Forkhead box O3A AvgDiff (pituitary, 0.1 mg/animal/14 day, control 497): 257 | Programmed cell death 6 AvgDiff (pituitary, 0.1 mg/animal/14 day, control 504): 635 | PKC inhibitor AvgDiff (pituitary, 0.1 mg/animal/14 day, control 2,351): 3,333 and 3,332 | ATPase, Na+/K+ transporting, β1 polypeptide expression ↑ (fold change) (spleen): polypeptide ↑ x2.5 | Adrenergic, α-2C-, receptor expression ↓ (fold change) (spleen): ↓ x2 | Arginine vasopressine receptor 1B expression ↑ (fold change) (spleen): receptor 1B ↑ x2 | Bcl-2 binding component 3 expression ↑ (fold change) (spleen): ↑ x2.5 | Ca++ channel, voltage-dependent, α2/δ subunit 1 expression ↑ (fold change) (spleen): α2/δ subunit 1 ↑ x2 | Ca++ channel, voltage-dependent, α2/δ subunit 2 expression ↑ (fold change) (spleen): ↑ x1.5
